Source: a compilation of properties of binary mixtures (doi:10.1007/s10953-014-0137-8)

Assay: xn = mol fraction of the nth substance listed
Conditions: 101 kPa

CCCC[n+]1ccn(C)c1.F[B-](F)(F)F + O
Conditions	electrical conductivity [S/m]	speed of sound [m/s]
293.15 K, x2 = 0.0964	–	1580.4
293.15 K, x2 = 0.2639	–	1586.2
293.15 K, x2 = 0.3058	1	–
293.15 K, x2 = 0.3901	–	1590.2
293.15 K, x2 = 0.4991	1.67	–
293.15 K, x2 = 0.5121	–	1596.5
293.15 K, x2 = 0.6369	–	1601.7
293.15 K, x2 = 0.7002	3.02	1606.4
293.15 K, x2 = 0.7456	–	1608.6
293.15 K, x2 = 0.7866	–	1609.7
293.15 K, x2 = 0.9	–	1602.3
293.15 K, x2 = 0.9001	4.22	–
293.15 K, x2 = 0.9252	4.41	1593.6
293.15 K, x2 = 0.9496	4.31	1581.6
293.15 K, x2 = 0.9744	3.76	1559.6
298.15 K, x2 = 0.1014	0.595	–
298.15 K, x2 = 0.2639	–	1574.3
298.15 K, x2 = 0.3058	1.18	–
298.15 K, x2 = 0.3901	–	1579.2
298.15 K, x2 = 0.4991	1.97	–
298.15 K, x2 = 0.5121	–	1585.1
298.15 K, x2 = 0.6369	–	1591.6
298.15 K, x2 = 0.7002	3.41	1596.4
298.15 K, x2 = 0.7456	–	1598.6
298.15 K, x2 = 0.7866	–	1600.5
298.15 K, x2 = 0.9	–	1598.5
298.15 K, x2 = 0.9001	4.74	–
298.15 K, x2 = 0.9252	5.3	1592.2
298.15 K, x2 = 0.9744	4.22	1564.4
303.15 K, x2 = 0.0964	–	1557.7
303.15 K, x2 = 0.1014	0.709	–
303.15 K, x2 = 0.2639	–	1563
303.15 K, x2 = 0.3058	1.36	–
303.15 K, x2 = 0.3901	–	1567.7
303.15 K, x2 = 0.4991	2.2	–
303.15 K, x2 = 0.5121	–	1573.8
303.15 K, x2 = 0.6369	–	1581.8
303.15 K, x2 = 0.7002	3.97	1586.6
303.15 K, x2 = 0.7456	–	1590.2
303.15 K, x2 = 0.7866	–	1592.6
303.15 K, x2 = 0.8493	5.68	1595.5
303.15 K, x2 = 0.9001	5.67	–
303.15 K, x2 = 0.9496	5.39	1582.7
303.15 K, x2 = 0.9744	4.9	1567.9
308.15 K, x2 = 0.0964	–	1545.7
308.15 K, x2 = 0.1014	0.848	–
308.15 K, x2 = 0.2639	–	1551
308.15 K, x2 = 0.3058	1.51	–
308.15 K, x2 = 0.3901	–	1556.3
308.15 K, x2 = 0.4991	2.51	–
308.15 K, x2 = 0.5121	–	1561.8
308.15 K, x2 = 0.7866	–	1582.8
308.15 K, x2 = 0.8493	6.09	1587.5
308.15 K, x2 = 0.9	–	1588.3
308.15 K, x2 = 0.9001	6.39	–
308.15 K, x2 = 0.9252	6.6	1586
308.15 K, x2 = 0.9496	6.32	1581.6
308.15 K, x2 = 0.9744	5.08	1570.2
313.15 K, x2 = 0.0964	–	1534.6
313.15 K, x2 = 0.2639	–	1539.6
313.15 K, x2 = 0.3058	1.76	–
313.15 K, x2 = 0.3901	–	1544.9
313.15 K, x2 = 0.4991	2.79	–
313.15 K, x2 = 0.5121	–	1550.6
313.15 K, x2 = 0.6369	–	1559
313.15 K, x2 = 0.7002	4.67	1565
313.15 K, x2 = 0.7456	–	1569.3
313.15 K, x2 = 0.7866	–	1573.2
313.15 K, x2 = 0.9	–	1582.1
313.15 K, x2 = 0.9001	6.94	–
313.15 K, x2 = 0.9252	7.12	1581.6
313.15 K, x2 = 0.9496	6.65	1579.4
318.15 K, x2 = 0.1014	1.12	–
318.15 K, x2 = 0.4991	3.1	–
318.15 K, x2 = 0.5121	–	1539.3
318.15 K, x2 = 0.7002	5.29	1554
318.15 K, x2 = 0.7456	–	1558.4
318.15 K, x2 = 0.7866	–	1562
318.15 K, x2 = 0.8493	7.3	1570.2
318.15 K, x2 = 0.9001	7.66	–
318.15 K, x2 = 0.9252	7.99	1576.4
318.15 K, x2 = 0.9496	7.34	1576.4
318.15 K, x2 = 0.9744	6.16	1571.6
323.15 K, x2 = 0.0964	–	1511.5
323.15 K, x2 = 0.1014	1.37	–
323.15 K, x2 = 0.2639	–	1516.4
323.15 K, x2 = 0.3058	2.3	–
323.15 K, x2 = 0.3901	–	1522.1
323.15 K, x2 = 0.4991	3.31	–
323.15 K, x2 = 0.5121	–	1528
323.15 K, x2 = 0.6369	–	1534.5
323.15 K, x2 = 0.7002	5.74	1542.4
323.15 K, x2 = 0.7456	–	1546.8
323.15 K, x2 = 0.7866	–	1552.2
323.15 K, x2 = 0.9	–	1567.8
323.15 K, x2 = 0.9001	8.59	–
323.15 K, x2 = 0.9252	8.71	1570.5
